Reference: US12077503B2, “Substituted cyclic amides and their use as herbicides” (FMC CORPORATION, priority 2015, dated 2024)

Columns and labels:
Format in all cases: in vivo
[1] = test system: pigweed (Amaranthus retroflexus); assay: Test A postemergence; conditions: for Pigweed plant response rating: visual injury rating on 0 to 100 scale (0 no effect, 100 complete control)
In short: (§1)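 Seeds sprayed preemergence with a directed soil spray, or plants at 2 to 10 cm height and one- to two-leaf stage sprayed postemergence, with test chemicals in a non-phytotoxic solvent mixture containing surfactant, in loam soil–sand blend. Injury rated visually against untreated controls after about 10 d in greenhouse, 0 (no effect) to 100 (complete control).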

[2] = test system: giant foxtail (Setaria faberii); assay: Test A postemergence; conditions: for Foxtail, Giant plant response rating: visual injury rating on 0 to 100 scale (0 no effect, 100 complete control)
In short: as §1

[3] = test system: ragweed (common ragweed, Ambrosia elatior); assay: Test A postemergence; conditions: for Ragweed plant response rating: visual injury rating on 0 to 100 scale (0 no effect, 100 complete control)
In short: as §1

[4] = test system: wheat (Triticum aestivum); assay: Test A postemergence; conditions: for Wheat plant response rating: visual injury rating on 0 to 100 scale (0 no effect, 100 complete control)
In short: as §1

Kochia (Kochia scoparia) [5] = assay: Test A postemergence; conditions: for Kochia plant response rating: visual injury rating on 0 to 100 scale (0 no effect, 100 complete control)
In short: as §1

[6] = test system: blackgrass (Alopecurus myosuroides); assay: Test A postemergence; conditions: for Blackgrass plant response rating: visual injury rating on 0 to 100 scale (0 no effect, 100 complete control)
In short: as §1

[7] = test system: Galium (catchweed bedstraw, Galium aparine); assay: Test A postemergence; conditions: for Galium plant response rating: visual injury rating on 0 to 100 scale (0 no effect, 100 complete control)
In short: as §1

[8] = test system: ryegrass, Italian (Italian ryegrass, Lolium multiflorum); assay: Test A postemergence; conditions: for Ryegrass, Italian plant response rating: visual injury rating on 0 to 100 scale (0 no effect, 100 complete control)
In short: as §1

corn (Zea mays) = assay: Test A postemergence; conditions: for Corn plant response rating: visual injury rating on 0 to 100 scale (0 no effect, 100 complete control)
In short: as §1

[9] = test system: barnyardgrass (Echinochloa crus-galli); assay: Test A postemergence; conditions: for Barnyardgrass plant response rating: visual injury rating on 0 to 100 scale (0 no effect, 100 complete control)
In short: as §1

[10] = test system: pigweed (Amaranthus retroflexus); assay: Test A preemergence; conditions: for Pigweed plant response rating (0 to 100 scale, 0 is no effect, 100 is complete control): visual injury approx. 10 d
[11] = test system: giant foxtail (Setaria faberii); assay: Test A preemergence; conditions: for Foxtail, Giant plant response rating (0 to 100 scale, 0 is no effect, 100 is complete control): visual injury approx. 10 d
In short: as §1

[12] = test system: ragweed (common ragweed, Ambrosia elatior); assay: Test A preemergence; conditions: for Ragweed plant response rating (0 to 100 scale, 0 is no effect, 100 is complete control): visual injury approx. 10 d
In short: as §1

Kochia (Kochia scoparia) [13] = assay: Test A preemergence; conditions: for Kochia plant response rating (0 to 100 scale, 0 is no effect, 100 is complete control): visual injury approx. 10 d
In short: as §1

[14] = test system: ryegrass, Italian (Italian ryegrass, Lolium multiflorum); assay: Test A preemergence; conditions: for Ryegrass, Italian plant response rating (0 to 100 scale, 0 is no effect, 100 is complete control): visual injury approx. 10 d
In short: as §1

[15] = test system: barnyardgrass (Echinochloa crus-galli); assay: Test A preemergence; conditions: for Barnyardgrass plant response rating (0 to 100 scale, 0 is no effect, 100 is complete control): visual injury approx. 10 d
In short: as §1

[16] = test system: ducksalad (Heteranthera limosa); assay: Test B flooded paddy test; conditions: Flood, 250 g ai/ha; 0 to 100 scale where 0 is no effect and 100 is complete control; 13 to 15 d
In short: (§2)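 Greenhouse paddy pots with 2-leaf stage plants received compound by direct addition to floodwater 3 cm deep, kept at that level. Scored visually at 13–15 d versus controls (0 no effect; 100 complete control).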

rice (Oryra sativa) = assay: Test B flooded paddy test; conditions: Flood, 250 g ai/ha; 0 to 100 scale where 0 is no effect and 100 is complete control; 13 to 15 d
In short: as §2

[17] = test system: sedge, umbrella (small-flower umbrella sedge, Cyperus difformis); assay: Test B flooded paddy test; conditions: Flood, 250 g ai/ha; 0 to 100 scale where 0 is no effect and 100 is complete control; 13 to 15 d
In short: as §2

[18] = test system: barnyardgrass (Echinochloa crus-galli); assay: Test B flooded paddy test; conditions: Flood, 250 g ai/ha; 0 to 100 scale where 0 is no effect and 100 is complete control; 13 to 15 d
In short: as §2

[19] = 125 g ai/ha, postemergence, approx. 10 d
[20] = Postemergence, 500 g ai/ha, 0 to 100 scale where 0 is no effect and 100 is complete control
[21] = 500 g ai/ha, postemergence, 0 to 100 scale, 0 no effect, 100 complete control
[22] = 125 g ai/ha, Preemergence, visual injury after approximately 10 d, 0 to 100 scale where 0 is no effect and 100 is complete control
[23] = 125 g ai/ha, preemergence, 0 to 100 scale (0 no effect, 100 complete control)
[24] = 125 g ai/ha, postemergence, visual rating after approx. 10 d, 0 to 100 scale (0 no effect, 100 complete control)
[25] = 500 g ai/ha, postemergence, visual injury, 0 to 100 scale (0 no effect, 100 complete control), approx. 10 d
[26] = 500 g ai/ha, preemergence, 0 to 100 scale, 0 = no effect, 100 = complete control

CC(C)=CCN1CC(c2cccc(C(F)(F)F)c2)C(C(=O)Nc2ccccc2F)C1=O (stereo not drawn) [Compound 478]
Pigweed plant response rating [1, 19]: 0
Plant response rating, Pigweed [1, 20]: 0
Foxtail, Giant plant response rating [2, 19]: 20
Plant response rating, Foxtail, Giant [2, 20]: 60
Ragweed plant response rating [3, 19]: 0
Plant response rating, Ragweed [3, 20]: 0
Wheat plant response rating [4, 19]: 0
Plant response rating, Wheat [4, 20]: 20
Kochia plant response rating (Kochia (Kochia scoparia) [5]; [19]): 0
Plant response rating, Kochia (Kochia (Kochia scoparia) [5]; [20]): 0
Blackgrass plant response rating [6, 19]: 0
Plant response rating, Blackgrass [6, 21]: 20
Galium plant response rating [7, 19]: 0
Plant response rating, Galium [7, 20]: 0
Ryegrass, Italian plant response rating [8, 19]: 0
Plant response rating, Ryegrass, Italian [8, 20]: 20
Corn plant response rating (corn (Zea mays); [19]): 0
Plant response rating, Corn (corn (Zea mays); [21]): 0
Barnyardgrass plant response rating [9, 19]: 30
Plant response rating, Barnyardgrass [9, 21]: 60
Plant response rating, Pigweed [10, 22]: 0
Pigweed plant response rating (0 to 100 scale, 0 is no effect, 100 is complete control) ([10]; Preemergence, 500 g ai/ha): 0
Plant response rating, Foxtail, Giant [11, 23]: 70
Foxtail, Giant plant response rating (0 to 100 scale, 0 is no effect, 100 is complete control) ([11]; Preemergence, 500 g ai/ha): 80
Plant response rating, Ragweed [12, 22]: 0
Ragweed plant response rating (0 to 100 scale, 0 is no effect, 100 is complete control) ([12]; Preemergence, 500 g ai/ha): 0
Plant response rating, Kochia (Kochia (Kochia scoparia) [13]; [23]): 0
Kochia plant response rating (0 to 100 scale, 0 is no effect, 100 is complete control) (Kochia (Kochia scoparia) [13]; Preemergence, 500 g ai/ha): 0
Plant response rating, Ryegrass, Italian [14, 22]: 0
Ryegrass, Italian plant response rating (0 to 100 scale, 0 is no effect, 100 is complete control) ([14]; Preemergence, 500 g ai/ha): 0
Plant response rating, Barnyardgrass [15, 23]: 20
Barnyardgrass plant response rating (0 to 100 scale, 0 is no effect, 100 is complete control) ([15]; Preemergence, 500 g ai/ha): 60
Plant response rating, Ducksalad [16]: 0
Plant response rating, Rice (rice (Oryra sativa)): 0
Plant response rating, Sedge, Umbrella [17]: 0
Plant response rating, Barnyardgrass [18]: 0

Cc1cc(C2CNC(=O)C2C(=O)Nc2cccc(F)c2F)cs1 (racemic) [Compound 656]
Plant response rating, Pigweed [1, 24]: 0
Plant response rating, Pigweed [1, 25]: 0
Plant response rating, Foxtail, Giant [2, 24]: 20
Plant response rating, Foxtail, Giant [2, 25]: 60
Plant response rating, Ragweed [3, 24]: 0
Plant response rating, Ragweed [3, 25]: 0
Plant response rating, Wheat [4, 24]: 0
Plant response rating, Wheat [4, 25]: 20
Plant response rating, Kochia (Kochia (Kochia scoparia) [5]; [24]): 20
Plant response rating, Kochia (Kochia (Kochia scoparia) [5]; [25]): 30
Plant response rating, Blackgrass [6, 24]: 0
Plant response rating, Blackgrass [6, 25]: 30
Plant response rating, Galium [7, 24]: 0
Plant response rating, Galium [7, 25]: 60
Plant response rating, Ryegrass, Italian [8, 24]: 0
Plant response rating, Ryegrass, Italian [8, 25]: 0
Plant response rating, Corn (corn (Zea mays); [24]): 0
Plant response rating, Corn (corn (Zea mays); [25]): 20
Plant response rating, Barnyardgrass [9, 24]: 90
Plant response rating, Barnyardgrass [9, 25]: 90
Plant response rating, Pigweed [10, 22]: 30
Plant response rating, Pigweed [10, 26]: 40
Plant response rating, Foxtail, Giant [11, 22]: 90
Plant response rating, Foxtail, Giant [11, 26]: 90
Plant response rating, Ragweed [12, 22]: 20
Plant response rating, Ragweed [12, 26]: 60
Plant response rating, Kochia (Kochia (Kochia scoparia) [13]; [22]): 60
Plant response rating, Kochia (Kochia (Kochia scoparia) [13]; [26]): 50
Plant response rating, Ryegrass, Italian [14, 22]: 30
Plant response rating, Ryegrass, Italian [14, 26]: 60
Plant response rating, Barnyardgrass [15, 22]: 90
Plant response rating, Barnyardgrass [15, 26]: 90
Plant response rating, Ducksalad [16]: 100
Plant response rating, Rice (rice (Oryra sativa)): 0
Plant response rating, Sedge, Umbrella [17]: 0
Plant response rating, Barnyardgrass [18]: 50

O=C1NCC(c2ccc(C(F)(F)F)c(F)c2)C1C(=O)Nc1ccccc1F (racemic) [Compound 521]
Pigweed plant response rating [1, 19]: 40
Plant response rating, Pigweed [1, 20]: 50
Foxtail, Giant plant response rating [2, 19]: 70
Plant response rating, Foxtail, Giant [2, 20]: 90
Ragweed plant response rating [3, 19]: 0
Plant response rating, Ragweed [3, 20]: 0
Wheat plant response rating [4, 19]: 20
Plant response rating, Wheat [4, 20]: 50
Kochia plant response rating (Kochia (Kochia scoparia) [5]; [19]): 0
Plant response rating, Kochia (Kochia (Kochia scoparia) [5]; [20]): 20
Blackgrass plant response rating [6, 19]: 30
Plant response rating, Blackgrass [6, 20]: 40
Galium plant response rating [7, 19]: 50
Plant response rating, Galium [7, 20]: 60
Ryegrass, Italian plant response rating [8, 19]: 20
Plant response rating, Ryegrass, Italian [8, 20]: 40
Corn plant response rating (corn (Zea mays); [19]): 30
Plant response rating, Corn (corn (Zea mays); [20]): 40
Barnyardgrass plant response rating [9, 19]: 90
Plant response rating, Barnyardgrass [9, 20]: 90
Plant response rating, Pigweed [10, 22]: 60
Pigweed plant response rating (0 to 100 scale, 0 is no effect, 100 is complete control) ([10]; Preemergence, 500 g ai/ha): 70
Plant response rating, Foxtail, Giant [11, 22]: 90
Foxtail, Giant plant response rating (0 to 100 scale, 0 is no effect, 100 is complete control) ([11]; Preemergence, 500 g ai/ha): 90
Plant response rating, Ragweed [12, 22]: 40
Ragweed plant response rating (0 to 100 scale, 0 is no effect, 100 is complete control) ([12]; Preemergence, 500 g ai/ha): 60
Plant response rating, Kochia (Kochia (Kochia scoparia) [13]; [22]): 0
Kochia plant response rating (0 to 100 scale, 0 is no effect, 100 is complete control) (Kochia (Kochia scoparia) [13]; Preemergence, 500 g ai/ha): 70
Plant response rating, Ryegrass, Italian [14, 22]: 30
Ryegrass, Italian plant response rating (0 to 100 scale, 0 is no effect, 100 is complete control) ([14]; Preemergence, 500 g ai/ha): 50
Plant response rating, Barnyardgrass [15, 22]: 90
Barnyardgrass plant response rating (0 to 100 scale, 0 is no effect, 100 is complete control) ([15]; Preemergence, 500 g ai/ha): 90
Plant response rating, Ducksalad [16]: 85
Plant response rating, Rice (rice (Oryra sativa)): 0
Plant response rating, Sedge, Umbrella [17]: 0
Plant response rating, Barnyardgrass [18]: 40
